Test results published in US20250353873A1, “COMPOUNDS AND METHODS FOR MODULATING APOE EXPRESSION” (Ionis Pharmaceuticals, Inc., priority 2024, published 2025).
Several values for one entry are separate records, joined by “and”; a condition that tells them apart may be missing. Equal entries are not always repeated. Strand notation (5' to 3'): a small letter for the sugar, then the base; units joined by * are phosphorothioate-linked, units joined directly phosphodiester-linked; [ ] holds rarer units or linkages, { } end groups; capitals alone tell only the bases. [ms] = mesyl phosphoramidate linkage; k = constrained ethyl (cEt); [5mC] = 5-methylcytosine; d = 2'-deoxy (DNA)

What was measured:
[1] = tested on: human APOE RNA; test: Duration of action study in APOE C57BL/6NTac-Apoeem7250 knock-in mice (Example 16); type: in vivo; settings: 300 μg ICV
Description: Modified oligonucleotides described above were tested in the APOE C57BL/6NTac-Apoeem7250 knock-in mouse model described above.
APOE C57BL/6NTac-Apoeem7250 knock-in mice were divided into groups of 2-4 mice each. Each mouse received a single intracerebroventricular (ICV) bolus of 300 μg of modified oligonucleotide. A group of 2-4 mice received a single ICV bolus with PBS as a negative control.
Mice were sacrificed at various timepoints as indicated in the table below and RNA was extracted from cortical brain tissue and spinal cord for quantitative real-time RT-PCR analysis of RNA expression of APOE using primer probe set RTS3073 (described herein above). APOE RNA levels were normalized to mouse Ppia. Mouse Ppia was amplified using primer probe set m_cyclo24 (described herein above). Results are presented as percent human APOE RNA relative to the amount of human APOE RNA in PBS treated animals, (% control). Each experiment is identified in separate tables below.

[2] = tested on: human APOE RNA; test: Activity in APOE C57BL/6NTac-Apoeem7250 knock-in mice, single ICV bolus, 8 weeks (Example 11); type: in vivo; settings: single ICV bolus 300 μg, 8 weeks post treatment, normalized to mouse Ppia
Method in brief: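 Cortical and spinal cord human APOE RNA quantified by RT-qPCR 8 weeks after a single 300 μg ICV dose in knock-in mice, Ppia-normalized. Values are percent of levels in PBS-treated animals.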

[3] = tested on: human APOE RNA; test: Dose-dependent inhibition of human APOE RNA in differentiated SH-SY5Y cells, free uptake, 5 days (Example 5); type: cell-based; settings: 5 days (Table 14)
Description: Modified oligonucleotides selected from the examples above were tested at various doses in differentiated SH-SY5Y cells. The modified oligonucleotides were tested in a series of experiments that had the same culture conditions.
Differentiated SH-SY5Y cells plated at a density of 10,000 cells per well were treated by free uptake with various concentrations of modified oligonucleotide as specified in the tables below. […] APOE RNA levels were measured using the human primer probe set RTS3073 (described herein above). APOE RNA levels were normalized to human PPIA. Human PPIA was amplified using human primer probe set mk_cycloA_2nd (described herein above). Results are presented as percent APOE RNA, relative to the amount of APOE RNA in untreated control cells (% UTC). The half maximal inhibitory concentration (IC50) of each modified oligonucleotide was calculated in GraphPad Prism 10 (GraphPad Software, San Diego, CA) and is also presented in the tables below.

[4] = tested on: human APOE RNA; test: Dose-dependent inhibition of human APOE RNA in HepG2 cells, electroporation, 50,000 cells per well, RT-PCR normalized to GAPDH (Example 4, Tables 8-10); type: cell-based; settings: HepG2, electroporation, 24-hour treatment
Method in brief: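 Readout is percent APOE RNA versus untreated controls, measured by RT-PCR (primer probe set RTS3073) and normalized to human GAPDH. Modified oligonucleotides were delivered by electroporation at varying doses into HepG2 cells plated at 50,000 per well.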

[5] = tested on: human APOE RNA; test: Activity in APOE C57BL/6NTac-Apoeem7250 knock-in mice, single ICV bolus, 4 weeks (Example 10); type: in vivo; settings: single ICV bolus 300 μg, 4 weeks post treatment, normalized to mouse Ppia
Method in brief: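 Human APOE RNA, quantified by real-time RT-PCR with RTS3073 and normalized to mouse Ppia, was read in cortical brain and spinal cord 4 weeks post dosing. Dosing was a single ICV bolus of 300 μg per knock-in mouse; values are % of PBS-treated animals.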

## 1746784 (k[5mC]*kT*kT*dG[ms]dG[ms]dT[ms]dG[ms]dA[ms]dA[ms]dT*d[5mC]*dT*dT*dT*dA[ms]dT*kT*kA*dA[ms]kA; antisense) [Compound 1746784]
[1]; 112 days post-dose
  APOE RNA (% control) Cortex: 38 % control
  APOE RNA (% control) Spinal Cord: 24 % control
[1]; 140 days post-dose
  APOE RNA (% control) Cortex: 45 % control
  APOE RNA (% control) Spinal Cord: 56 % control
[2]; cortex
  APOE RNA (% control) Cortex: 38 % control
[2]; spinal cord
  APOE RNA (% control) Spinal Cord: 138 % control
[3]; 5 nM
  APOE RNA (% UTC): 82 % UTC
[3]; 13 nM
  APOE RNA (% UTC): 118 % UTC
[3]; 33 nM
  APOE RNA (% UTC): 83 % UTC
[3]; 82 nM
  APOE RNA (% UTC): 61 % UTC
[3]; 205 nM
  APOE RNA (% UTC): 49 % UTC
[3]; 512 nM
  APOE RNA (% UTC): 62 % UTC
[3]; 1,280 nM
  APOE RNA (% UTC): 36 % UTC
[3]; 3,200 nM
  APOE RNA (% UTC): 24 % UTC
[3]; 8,000 nM
  APOE RNA (% UTC): 13 % UTC
[3]; 20,000 nM
  APOE RNA (% UTC): 6 % UTC
[3]
  IC50: 440 nM
[4]; 5 nM
  APOE RNA (% UTC): 78 % UTC
[4]; 13 nM
  APOE RNA (% UTC): 74 % UTC
[4]; 82 nM
  APOE RNA (% UTC): 80 % UTC
[4]; 205 nM
  APOE RNA (% UTC): 61 % UTC
[4]; 512 nM
  APOE RNA (% UTC): 48 % UTC
[4]; 1,280 nM
  APOE RNA (% UTC): 29 % UTC
[4]; 3,200 nM
  APOE RNA (% UTC): 10 % UTC
[4]; 8,000 nM
  APOE RNA (% UTC): 7 % UTC
[4]; 20,000 nM
  APOE RNA (% UTC): 7 % UTC
[4]
  IC50: 310 nM
[5]; cortex
  APOE RNA (% control) Cortex: 49 % control and 39 % control
[5]; spinal cord
  APOE RNA (% control) Spinal Cord: 26 % control
